From article PMC12367838, “Relevance of kinetic interactions and co-formulants for plant protection product liver toxicity in vitro” (Archives of Toxicology, 2025)

System: HepaRG cells
Assay: Total RNA sequencing, differential gene expression
[1] = high sub-cytotoxic concentration, 24 h, vs solvent control
[2] = low sub-cytotoxic concentration, 24 h, vs solvent control

For `C#CCOc1ccc(CCNC(=O)C(OCC#C)c2ccc(Cl)cc2)cc1OC` (stereo not drawn) [MDP, mandipropamid], the “Fold change ACOX1” value (gene ACOX1, MDP_HIGH) was 0.9326, the “log2FoldChange ACOX1” value (gene ACOX1, MDP_HIGH) was -0.1007 and the “Fold change AHR” value (gene AHR, MDP_HIGH) was 1.696. The “log2FoldChange AHR” value (gene AHR, MDP_HIGH) was 0.7618, the “Fold change CD36” value (gene CD36, MDP_HIGH) was 1.4443 and the “log2FoldChange CD36” value (gene CD36, MDP_HIGH) was 0.5304. The “Fold change CYP1A1” value (gene CYP1A1, MDP_HIGH) was 10.9554, the “log2FoldChange CYP1A1” value (gene CYP1A1, MDP_HIGH) was 3.454 and the “Fold change CYP1A2” value (gene CYP1A2, MDP_HIGH) was 0.4656. For the same molecule, the “log2FoldChange CYP1A2” value (gene CYP1A2, MDP_HIGH) was -1.103, the “Fold change CYP2B6” value (gene CYP2B6, MDP_HIGH) was 1.009 and the “log2FoldChange CYP2B6” value (gene CYP2B6, MDP_HIGH) was 0.01275. For the same molecule, the “Fold change CYP2C9” value (gene CYP2C9, MDP_HIGH) was 0.1687, the “log2FoldChange CYP2C9” value (gene CYP2C9, MDP_HIGH) was -2.568 and the “Fold change CYP2C19” value (gene CYP2C19, MDP_HIGH) was 0.1531. The “log2FoldChange CYP2C19” value (gene CYP2C19, MDP_HIGH) was -2.707, the “Fold change CYP2D6” value (gene CYP2D6, MDP_HIGH) was 0.9227 and the “log2FoldChange CYP2D6” value (gene CYP2D6, MDP_HIGH) was -0.116. For the same molecule, the “Fold change CYP3A4” value (gene CYP3A4, MDP_HIGH) was 0.7016, the “log2FoldChange CYP3A4” value (gene CYP3A4, MDP_HIGH) was -0.5112 and the “Fold change FASN” value (gene FASN, MDP_HIGH) was 1.131. For the same molecule, the “log2FoldChange FASN” value (gene FASN, MDP_HIGH) was 0.178, the “Fold change INSIG1” value (gene INSIG1, MDP_HIGH) was 1.034 and the “log2FoldChange INSIG1” value (gene INSIG1, MDP_HIGH) was 0.04872. For the same molecule, the “Fold change MLXIPL” value (gene MLXIPL, MDP_HIGH) was 0.6622, the “log2FoldChange MLXIPL” value (gene MLXIPL, MDP_HIGH) was -0.5947 and the “Fold change NR1H2” value (gene NR1H2, MDP_HIGH) was 1.431. For the same molecule, the “log2FoldChange NR1H2” value (gene NR1H2, MDP_HIGH) was 0.5168, the “Fold change NR1H4” value (gene NR1H4, MDP_HIGH) was 0.8415 and the “log2FoldChange NR1H4” value (gene NR1H4, MDP_HIGH) was -0.249. The “Fold change NR1I2” value (gene NR1I2, MDP_HIGH) was 0.5918, the “log2FoldChange NR1I2” value (gene NR1I2, MDP_HIGH) was -0.7568 and the “Fold change NR1I3” value (gene NR1I3, MDP_HIGH) was 0.06449. For the same molecule, the “log2FoldChange NR1I3” value (gene NR1I3, MDP_HIGH) was -3.955, the “Fold change NR3C1” value (gene NR3C1, MDP_HIGH) was 1.123 and the “log2FoldChange NR3C1” value (gene NR3C1, MDP_HIGH) was 0.1669. For the same molecule, the “Fold change PPARA” value (gene PPARA, MDP_HIGH) was 0.7275, the “log2FoldChange PPARA” value (gene PPARA, MDP_HIGH) was -0.4589 and the “Fold change PPARG” value (gene PPARG, MDP_HIGH) was 4.604. The “log2FoldChange PPARG” value (gene PPARG, MDP_HIGH) was 2.203, the “Fold change RARA” value (gene RARA, MDP_HIGH) was 1.153 and the “log2FoldChange RARA” value (gene RARA, MDP_HIGH) was 0.2052. For the same molecule, the “Fold change RARB” value (gene RARB, MDP_HIGH) was 2.749, the “log2FoldChange RARB” value (gene RARB, MDP_HIGH) was 1.459 and the “Fold change RARG” value (gene RARG, MDP_HIGH) was 1.386. The “log2FoldChange RARG” value (gene RARG, MDP_HIGH) was 0.4711, the “Fold change SCD” value (gene SCD, MDP_HIGH) was 0.8254 and the “log2FoldChange SCD” value (gene SCD, MDP_HIGH) was -0.2768. For the same molecule, the “Fold change SREBF1” value (gene SREBF1, MDP_HIGH) was 0.451, the “log2FoldChange SREBF1” value (gene SREBF1, MDP_HIGH) was -1.149 and the “CYP1A1 Fold change” value [1] was “≈ 11”. For the same molecule, the “NR1I3 Fold change” value [1] was “≈ 0.06”, the “SREBF1 Fold change” value [1] was “≈ 0.45” and the “ACOX1 Fold change” value [2] was 1.035. For the same molecule, the “ACOX1 log2FoldChange” value [2] was 0.04967, the “AHR Fold change” value [2] was 1.296 and the “AHR log2FoldChange” value [2] was 0.3736. The “CD36 Fold change” value [2] was 1.929, the “CD36 log2FoldChange” value [2] was 0.9479 and the “CYP1A1 Fold change” value [2] was 5.261. For the same molecule, the “CYP1A1 log2FoldChange” value [2] was 2.395, the “CYP1A2 Fold change” value [2] was 0.6714 and the “CYP1A2 log2FoldChange” value [2] was -0.5747. The “CYP2B6 Fold change” value [2] was 1.3371, the “CYP2B6 log2FoldChange” value [2] was 0.4191 and the “CYP2C9 Fold change” value [2] was 0.329. The “CYP2C9 log2FoldChange” value [2] was -1.6038, the “CYP2C19 Fold change” value [2] was 0.4073 and the “CYP2C19 log2FoldChange” value [2] was -1.2958. The “CYP2D6 Fold change” value [2] was 0.5576, the “CYP2D6 log2FoldChange” value [2] was -0.8427 and the “CYP3A4 log2FoldChange” value [2] was 1.049. For the same molecule, the “FASN Fold change” value [2] was 1.765, the “FASN log2FoldChange” value [2] was 0.8201 and the “INSIG1 Fold change” value [2] was 1.785. For the same molecule, the “INSIG1 log2FoldChange” value [2] was 0.8359, the “MLXIPL Fold change” value [2] was 0.9069 and the “MLXIPL log2FoldChange” value [2] was -0.1409. The “NR1H2 Fold change” value [2] was 1.22, the “NR1H2 log2FoldChange” value [2] was 0.2868 and the “NR1H4 Fold change” value [2] was 1.127. For the same molecule, the “NR1H4 log2FoldChange” value [2] was 0.1725, the “NR1I2 Fold change” value [2] was 0.6165 and the “NR1I2 log2FoldChange” value [2] was -0.6979. The “NR1I3 Fold change” value [2] was 0.09752, the “NR1I3 log2FoldChange” value [2] was -3.358 and the “NR3C1 Fold change” value [2] was 1.06. For the same molecule, the “NR3C1 log2FoldChange” value [2] was 0.08356, the “PPARA Fold change” value [2] was 0.907 and the “PPARA log2FoldChange” value [2] was -0.1409. The “PPARG Fold change” value [2] was 2.875, the “PPARG log2FoldChange” value [2] was 1.5234 and the “RARA Fold change” value [2] was 1.12. For the same molecule, the “RARA log2FoldChange” value [2] was 0.164, the “RARB Fold change” value [2] was 3.072 and the “RARB log2FoldChange” value [2] was 1.619. For the same molecule, the “RARG Fold change” value [2] was 1.553, the “RARG log2FoldChange” value [2] was 0.6348 and the “SCD Fold change” value [2] was 1.519. The “SCD log2FoldChange” value [2] was 0.6028, the “SREBF1 Fold change” value [2] was 0.7245 and the “SREBF1 log2FoldChange” value [2] was -0.4649.
